Data as given in patent US20260372305A1, “A METHOD FOR CONTROLLING WEEDS” (SYNGENTA CROP PROTECTION AG, priority 2022, published 2026).

Experiments:
Format in all cases: in vivo
[1] = system: Amaranthus palmeri, homozygous for glycine at amino acid 98 in PPX2L ('98GG', R98G); assay: Postemergence control of Amaranthus palmeri with R98G mutation in PPX2L (Example 1); details: for % Survival out of 14 repetitions: R98G, postemergence, 14 days after application, Adigor 0.5% by volume
Text: (§1) The commercial standard PPO inhibitor fomesafen and compound 1 of the present application were applied to two Amaranthus palmeri populations in order to determine the impact of mutations at amino acid 98 in PPX2L from the wild-type arginine to a glycine.
(§2) The two A. palmeri populations used were as follows: a known PPO inhibitor sensitive population (‘Sensitive’), a population of which each individual was known to be homozygous for a glycine at amino acid 98 in the protoporphyrinogen oxidase gene PPX2L (‘98GG’).
(§3) Seeds were sown in seed trays containing ericaceous compost and covered with vermiculite. When approximately 1 inch in height plants were transplanted 1 per pot into 3-inch diameter pots containing ericaceous compost. The pots were watered and maintained in a glasshouse providing a 16 H photoperiod of 180 μmol m^−2 s^−1 with 24 °C daytime temperatures and 18 °C night-time temperatures and 65% relative humidity until 3 inches tall at which point the herbicides were applied at the use rates specified in Table 1 below to 14 individual plants per rate of each of the biotypes.
(§4) All treatments were applied as dilutions in reverse osmosis water and with the commercial adjuvant Adigor® at 0.5% by volume. Prior to dilution with water compound 8 was initially dissolved to a 5% solution in a solvent mixture comprising 11.12% Emulsogen EL 360, 44.44% Dowanol DPM and 44.44% N-methyl pyrrolidone. Herbicide applications were carried out in a track sprayer with a flat fan nozzle applying the herbicide treatments at a rate of 200 L/ha^−1.
(§5) After treatment, the plants were watered and maintained in a glasshouse providing a 16 H photoperiod of 180 μmol m^−2 s^−1 with 24 °C daytime temperatures and 18 °C night-time temperatures and 65% relative humidity until 14 days after application at which point they were assessed on a ‘dead or alive’ basis. The plants still alive at this point were classed as surviving the herbicide application and the averaged results of this assessment are presented in Table 1.

[2] = system: Amaranthus tuberculatus, Sensitive; assay: Postemergence control of sensitive population (Example 2); details: Agridex 1% by volume
[3] = system: Amaranthus palmeri, PPO inhibitor sensitive population ('Sensitive'); assay: Postemergence control of PPO inhibitor sensitive Amaranthus palmeri (Example 1); details: for use rate achieving complete control (no surviving plants) of the 'sensitive' population / % Survival out of 14 repetitions: postemergence, 14 days after application; for % Survival out of 14 repetitions: Sensitive, Adigor 0.5% by volume
Text: as §1, §2, §3, §4, §5

SMILES | % Survival out of 14 repetitions ([1]; 1 g ai/ha^−1) [%] | % Survival out of 14 repetitions ([1]; 2 g ai/ha^−1) [%] | % Survival out of 14 repetitions ([1]; 4 g ai/ha^−1) [%] | % Survival out of 14 repetitions ([1]; 8 g ai/ha^−1) [%] | % Survival out of 14 repetitions ([1]; 16 g ai/ha^−1) [%] | % Survival out of 14 repetitions ([1]; 32 g ai/ha^−1) [%] | % Survival out of 14 repetitions ([1]; 64 g ai/ha^−1) [%] | use rate achieving complete control (no surviving plants) of the 'sensitive' population ([3]; 'sensitive' population) [g ai/ha^−1] | % Survival out of 14 repetitions ([3]; 1 g ai/ha^−1) [%] | % Survival out of 14 repetitions ([3]; 2 g ai/ha^−1) [%] | % Survival out of 14 repetitions ([3]; 4 g ai/ha^−1) [%] | % Survival out of 14 repetitions ([3]; 8 g ai/ha^−1) [%] | % Survival out of 14 repetitions ([3]; 16 g ai/ha^−1) [%] | % Survival out of 14 repetitions ([3]; 32 g ai/ha^−1) [%] | % Survival out of 14 repetitions ([3]; 64 g ai/ha^−1) [%] | other results
CCOC(=O)[C@]1(C)CC(c2cc(-n3c(=O)n(C)c(=S)n(C)c3=O)c(F)cc2Cl)=NO1 [compound 1, ethyl (5S)-3-[2-chloro-5-(3,5-dimethyl-2,6-dioxo-4-thioxo-1,3,5-triazinan-1-yl)-4-fluoro-phenyl]-5-methyl-4H-isoxazole-5-carboxylate] | 100 | 100 | 100 | 100 | 79 | 79 | 21 | ≥ 16 | 100 | 86 | 43 | 7 | 0 | 0 | 0 | control of '98GG' ([1]; '98GG', 16 g ai/ha^−1 rate, compared with fomesafen): better control of ‘98GG’; % Survival out of 14 repetitions ([1]; 0.5 g ai/ha^−1): 100%; % Survival out of 14 repetitions ([2]; 0.5 g ai/ha^−1, 14 days after application): 100%; % Survival out of 14 repetitions ([2]; 1 g ai/ha^−1, 14 days after application): 100%; % Survival out of 14 repetitions ([2]; 2 g ai/ha^−1, 14 days after application): 86%; % Survival out of 14 repetitions ([2]; 4 g ai/ha^−1, 14 days after application): 43%; % Survival out of 14 repetitions ([2]; 8 g ai/ha^−1, 14 days after application): 14%; % Survival out of 14 repetitions ([2]; 16 g ai/ha^−1, 14 days after application): 0%; % Survival out of 14 repetitions ([2]; 32 g ai/ha^−1, 14 days after application): 0%; % Survival out of 14 repetitions ([2]; 64 g ai/ha^−1, 14 days after application): 0%; ability for controlling the 'sensitive' population compared with fomesafen ([3]; 'sensitive' population, compared with fomesafen): improved ability compared with fomesafen for controlling the ‘sensitive’ population; % Survival out of 14 repetitions ([3]; 0.5 g ai/ha^−1): 100%
CS(=O)(=O)NC(=O)c1cc(Oc2ccc(C(F)(F)F)cc2Cl)ccc1[N+](=O)[O-] [fomesafen, reference compound] | 100 | 100 | 100 | 100 | 100 | 93 | 93 | ≥ 64 | 100 | 100 | 86 | 71 | 14 | 7 | 0 | % Survival out of 14 repetitions ([1]; 128 g ai/ha^−1): 93%; % Survival out of 14 repetitions ([3]; 128 g ai/ha^−1): 0%
